Counter-ions that a name gives are not always drawn.
Experiments:
Type in all cases: biochemical
[1] = biological target: T1, recombinant human Lysyl Oxidase-Like 2 (LOXL2) (Homo sapiens, UniProt Q9Y4K0); assay: Amplex Red HRP-coupled amine oxidase assay, recombinant human LOXL2; details: 60 min incubation with enzyme at 37° C., putrescine substrate, read-out: Inhibitory activity (IC50, nM) human LOXL2
T1 construct: purchased R&D systems
T1 sequence (Q9Y4K0 26-774): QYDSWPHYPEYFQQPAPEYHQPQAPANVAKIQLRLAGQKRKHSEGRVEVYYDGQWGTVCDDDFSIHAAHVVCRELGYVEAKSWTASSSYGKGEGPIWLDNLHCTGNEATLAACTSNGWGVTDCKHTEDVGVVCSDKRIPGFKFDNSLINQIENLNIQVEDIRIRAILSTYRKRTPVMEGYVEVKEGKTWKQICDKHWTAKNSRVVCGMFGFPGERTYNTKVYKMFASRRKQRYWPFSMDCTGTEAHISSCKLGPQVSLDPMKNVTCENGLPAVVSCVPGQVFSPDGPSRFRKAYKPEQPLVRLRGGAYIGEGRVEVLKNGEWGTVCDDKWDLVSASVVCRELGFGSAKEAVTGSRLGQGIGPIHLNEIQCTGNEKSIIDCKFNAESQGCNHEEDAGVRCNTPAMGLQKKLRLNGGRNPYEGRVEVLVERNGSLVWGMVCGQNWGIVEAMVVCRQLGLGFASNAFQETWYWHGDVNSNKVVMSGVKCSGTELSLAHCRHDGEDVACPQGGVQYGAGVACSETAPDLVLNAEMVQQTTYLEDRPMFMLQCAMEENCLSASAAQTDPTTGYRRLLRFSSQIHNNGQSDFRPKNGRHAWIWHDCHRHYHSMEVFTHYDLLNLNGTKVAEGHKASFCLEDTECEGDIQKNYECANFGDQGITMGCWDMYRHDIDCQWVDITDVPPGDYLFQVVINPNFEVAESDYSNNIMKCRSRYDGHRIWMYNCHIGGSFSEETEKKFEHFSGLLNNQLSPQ
How it was run: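 Putrescine substrate (30 mM) in 50 mM sodium phosphate pH 7.4, 37 °C; compounds preincubated 60 min with enzyme, 1% DMSO final, six-point curves. H2O2 detected via 400 μM Amplex Red/2 U/mL HRP, fluorescence (ex 530/em 590 nm) after 1 h; IC50 from four-parameter logistic fit of % signal reduction.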

[2] = biological target: T2, recombinant human MAO-A (monoamine oxidase-A) (Homo sapiens, UniProt P21397); assay: Amplex Red HRP-coupled amine oxidase assay, recombinant human MAO-A; details: 0.5 mM tyramine substrate, read-out: Inhibitory activity (IC50, nM) MAO-A
T2 construct: purchased Sigma-Aldrich
T2 sequence (P21397 1-527): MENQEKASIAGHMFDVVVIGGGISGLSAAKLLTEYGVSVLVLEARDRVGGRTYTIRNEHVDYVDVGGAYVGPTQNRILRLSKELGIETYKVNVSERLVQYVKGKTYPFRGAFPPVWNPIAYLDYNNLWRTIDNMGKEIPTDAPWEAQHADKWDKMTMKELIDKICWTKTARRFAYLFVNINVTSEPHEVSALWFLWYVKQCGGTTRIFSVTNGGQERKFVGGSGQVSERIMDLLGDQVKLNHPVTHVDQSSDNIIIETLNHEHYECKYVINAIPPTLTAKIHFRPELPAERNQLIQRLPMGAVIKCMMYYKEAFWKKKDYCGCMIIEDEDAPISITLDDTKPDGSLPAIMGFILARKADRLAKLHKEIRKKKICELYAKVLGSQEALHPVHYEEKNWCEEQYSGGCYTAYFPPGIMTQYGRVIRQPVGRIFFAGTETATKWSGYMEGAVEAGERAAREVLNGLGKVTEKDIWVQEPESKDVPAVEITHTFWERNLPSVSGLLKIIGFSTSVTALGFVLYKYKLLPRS
Experimental: (§1) The activities of the compounds according to the present invention against recombinant human Lysyl Oxidase-Like 2 (recombinant human LOXL2, R&D systems) were evaluated by measuring the levels of hydrogen peroxide in the HRP (horseradish peroxidase) coupled reactions, with the Amplex Red Hydrogen Peroxide Assay Kit (Molecular Probes, Invitrogen, USA). The tests were carried out at 37° C., and putrescine was used as a substrate. In the HRP coupling reaction, the oxidation of 10-acetyl-3,7-dihydroxyphenoxazine (Amplex Red reagent) by hydrogen peroxide generates a fluorescent product, i.e., resorufin. Briefly, the test compounds were dissolved in dimethyl sulfoxide (DMSO) at a concentration of 20 mM. Dose-response measurements were carried out by serial dilutions in DMSO to generate a six-point curve. The upper concentration was adjusted according to the potency of the compound, and then diluted with the reaction buffer to obtain a final DMSO concentration of 1%. Purified human LOXL2 in 50 mM sodium phosphate buffer (pH7.4) was added to each well of a 96 well black plate. The test compounds dissolved in DMSO were incubated with the human LOXL2 enzyme at 37° C. for 60 minutes. After the incubation for 60 minutes, a reaction mixture containing 400 μM Amplex Red reagent, 30 mM putrescine, and 2 U/mL HRP in 50 mM sodium phosphate buffer (pH 7.4) was added to each well. Fluorescence was measured with a microplate reader (Flexstation3, Molecular Devices), under the conditions of excitation at 530 nm and emission at 590 nm, 1 hour after the addition of the mixture. Inhibition by each compound was measured as % reduction in signal, compared to the control without an inhibitor (diluted DMSO only). The data were fixed to a four-variable logistic model, and […] values were calculated using the GraphPad Prism program.
(§2) And, the activities of the compounds according to the present invention against recombinant human MAO-A (monoamine oxidase-A, Sigma-Aldrich) and recombinant human MAO-B (monoamine oxidase-B, Sigma-Aldrich) were evaluated in a similar manner to the activity evaluation method for recombinant human LOXL2, using 0.5 mM tyramine and 1 mM benzylamine as a substrate, respectively. In addition, the activities of the compounds according to the present invention against recombinant human DAO (diamine oxidase, R&D systems) were evaluated in a similar manner to the activity evaluation method for recombinant human LOXL2, using 1 mM putrescine as a substrate.

[3] = biological target: T3, recombinant human MAO-B (monoamine oxidase-B) (Homo sapiens, UniProt P27338); assay: Amplex Red HRP-coupled amine oxidase assay, recombinant human MAO-B; details: 1 mM benzylamine substrate, read-out: Inhibitory activity (IC50, nM) MAO-B
T3 construct: purchased Sigma-Aldrich
T3 sequence (P27338 1-520): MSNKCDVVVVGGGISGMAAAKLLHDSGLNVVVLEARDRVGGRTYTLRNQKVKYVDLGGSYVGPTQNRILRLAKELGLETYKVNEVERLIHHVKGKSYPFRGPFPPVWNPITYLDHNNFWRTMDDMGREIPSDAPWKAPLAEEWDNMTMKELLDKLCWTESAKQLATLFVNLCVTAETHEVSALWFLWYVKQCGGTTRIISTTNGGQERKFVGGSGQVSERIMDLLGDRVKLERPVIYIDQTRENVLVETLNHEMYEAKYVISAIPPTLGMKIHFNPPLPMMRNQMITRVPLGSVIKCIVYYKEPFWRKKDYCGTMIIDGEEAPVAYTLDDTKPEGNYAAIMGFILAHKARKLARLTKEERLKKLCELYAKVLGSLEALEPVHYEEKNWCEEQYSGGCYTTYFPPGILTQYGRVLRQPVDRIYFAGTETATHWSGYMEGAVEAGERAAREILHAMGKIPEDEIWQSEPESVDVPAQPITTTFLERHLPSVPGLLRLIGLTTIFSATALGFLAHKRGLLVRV
Experimental: as §1, §2

[4] = biological target: T4, recombinant human DAO (diamine oxidase) (Homo sapiens, UniProt P19801); assay: Amplex Red HRP-coupled amine oxidase assay, recombinant human DAO; details: 1 mM putrescine substrate, read-out: Inhibitory activity (IC50, nM) DAO
T4 construct: purchased R&D systems
T4 sequence (P19801 20-751): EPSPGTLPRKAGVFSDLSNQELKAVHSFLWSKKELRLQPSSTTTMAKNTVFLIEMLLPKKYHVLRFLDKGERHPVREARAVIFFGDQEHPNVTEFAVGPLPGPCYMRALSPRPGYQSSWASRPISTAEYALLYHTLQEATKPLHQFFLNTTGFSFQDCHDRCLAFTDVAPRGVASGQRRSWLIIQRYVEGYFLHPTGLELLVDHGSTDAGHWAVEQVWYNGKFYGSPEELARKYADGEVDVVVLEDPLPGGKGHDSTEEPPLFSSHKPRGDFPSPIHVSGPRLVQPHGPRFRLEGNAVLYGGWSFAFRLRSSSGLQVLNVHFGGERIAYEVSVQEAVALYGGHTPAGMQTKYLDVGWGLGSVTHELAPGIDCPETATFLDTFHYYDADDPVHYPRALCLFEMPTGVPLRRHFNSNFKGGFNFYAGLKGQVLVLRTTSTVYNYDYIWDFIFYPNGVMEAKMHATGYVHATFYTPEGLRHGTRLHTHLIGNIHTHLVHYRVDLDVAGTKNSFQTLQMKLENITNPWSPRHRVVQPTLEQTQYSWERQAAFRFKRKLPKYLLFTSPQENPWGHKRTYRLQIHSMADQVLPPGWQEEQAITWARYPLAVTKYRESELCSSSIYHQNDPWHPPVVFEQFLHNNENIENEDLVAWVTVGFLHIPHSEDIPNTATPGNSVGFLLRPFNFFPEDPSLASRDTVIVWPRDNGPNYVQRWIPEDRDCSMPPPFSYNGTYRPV
Experimental: as §1, §2

Row | Structure (SMILES) | IC50 [1] [nM] | IC50 [2] [nM] | IC50 [3] [nM] | IC50 [4] [nM]
1 | COC(=O)c1cc(-c2cc(S(=O)(=O)C(F)(F)F)ccc2C)c2ncn(C/C(F)=C/CN)c2c1 [Example 35, methyl (Z)-1-(4-amino-2-fluorobut-2-en-1-yl)-4-(2-methyl-5-((trifluoromethyl)sulfonyl)phenyl)-1H-benzo[d]imidazol-6-carboxylate hydrochloride] | 67.6 | > 100000 | > 100000 | 47700
2 | NC/C=C(\F)Cn1cnc2c(-c3cccc(S(=O)(=O)NC4CC4)c3)cc(F)cc21 [Example 9, (Z)-3-(1-(4-amino-2-fluorobut-2-en-1-yl)-6-fluoro-1H-benzo[d]imidazol-4-yl)-N-cyclopropylbenzenesulfonamide hydrochloride] | 39 | 48600 | > 100000 | 3100
3 | CN(C)S(=O)(=O)c1cccc(-c2cccc3c2nnn3C/C(F)=C/CN)c1 [Example 112, (Z)-3-(1-(4-amino-2-fluorobut-2-en-1-yl)-1H-benzo[d][1,2,3]triazol-4-yl)-N,N-dimethylbenzenesulfonamide hydrochloride] | 15 | > 100000 | 26500 | 32100
4 | CNS(=O)(=O)c1cccc(-c2cc(C(F)(F)F)cc3c2ncn3C/C(F)=C/CN)c1 [Example 20, (Z)-3-(1-(4-amino-2-fluorobut-2-en-1-yl)-6-(trifluoromethyl)-1H-benzo[d]imidazol-4-yl)-N-methylbenzenesulfonamide hydrochloride] | 77 | > 100000 | > 100000 | > 100000
5 | COC(=O)c1cc(-c2cc(S(=O)(=O)NC3CC3)ccc2OC)c2ncn(C/C(F)=C/CN)c2c1 [Example 27, methyl (Z)-1-(4-amino-2-fluorobut-2-en-1-yl)-4-(5-(N-cyclopropylsulfamoyl)-2-methoxyphenyl)-1H-benzo[d]imidazol-6-carboxylate hydrochloride] | 31.3 | 45700 | > 100000 | 16100
6 | COC(=O)c1cc(-c2cccc(S(C)(=O)=O)c2)c2nc(C)n(C/C(F)=C/CN)c2c1 [Example 67, methyl (Z)-1-(4-amino-2-fluorobut-2-en-1-yl)-2-methyl-4-(3-(methylsulfonyl)phenyl)-1H-benzo[d]imidazol-6-carboxylate hydrochloride] | 83 | > 100000 | > 100000 | 646
7 | CNS(=O)(=O)c1cccc(-c2cccc3c2nc(C(F)(F)F)n3C/C(F)=C/CN)c1 [Example 53, (Z)-3-(1-(4-amino-2-fluorobut-2-en-1-yl)-2-(trifluoromethyl)-1H-benzo[d]imidazol-4-yl)-N-methylbenzenesulfonamide hydrochloride] | 68 | > 100000 | > 100000 | > 100000
8 | COC(=O)c1cc(-c2cccc(S(=O)(=O)N3CCCC3)c2)c2nc(C)n(C/C(F)=C/CN)c2c1 [Example 70, methyl (Z)-1-(4-amino-2-fluorobut-2-en-1-yl)-2-methyl-4-(3-(pyrrolidin-1-ylsulfonyl)phenyl)-1H-benzo[d]imidazol-6-carboxylate hydrochloride] | 60 | 10300 | > 100000 | 2500
9 | CC(=O)c1ccc(F)c(-c2cc(C#N)cc3c2ncn3C/C(F)=C/CN)c1 [Example 184, (Z)-4-(5-acetyl-2-fluorophenyl)-1-(4-amino-2-fluorobut-2-en-1-yl)-1H-benzo[d]imidazol-6-carbonitrile hydrochloride] | 99 | > 100000 | > 100000 | 
10 | N#Cc1cc(-c2cccc(S(=O)(=O)N3CCCC3)c2)c2ncn(C/C(F)=C/CN)c2c1 [Example 181, (Z)-1-(4-amino-2-fluorobut-2-en-1-yl)-4-(3-(pyrrolidin-1-ylsulfonyl)phenyl)-1H-benzo[d]imidazol-6-carbonitrile hydrochloride] | 43.1 | > 100000 | > 100000 | 

Reference: US12686665B2, “Bicyclic fused ring derivative or salt thereof and pharmaceutical composition comprising same” (YUHAN CORPORATION, priority 2021, dated 2026)
